Like-named read-outs stand apart in the source and are kept apart here. Marks after values point to notes of the source that are not given here.
What was measured:
[1] = system: oocytes of C57BL/6 (8 months) mice
Description: GV oocytes isolated from the ovaries of control mice were incubated for 17 h in αMEM. […] Metaphase II eggs following IVM were karyotyped and data expressed. Karyotype analyses were carried out by dual stains (anti-CREST and Sytox green) of metaphase II chromosomes. N: number of interpretable metaphase II karyotypes containing at least 18 dyads or the equivalent (e.g. 17 dyads plus 2 separated sister chromatids). Hypoploid: 18-19 dyads. Euploid: 20 dyads. Hyperploid: 21. PSSC: any karyotypes containing separated sister chromatid(s), with the total of at least 18 dyads or the equivalents. Aneuploid: 2×hyperploid+PSSC. Detailed breakdowns are in Table 14.
Mice were euthanized by cervical dislocation 44-46 h after they were primed with 5 IU equine chorionic gonadotropin (eCG) intraperitonally. […] Ovaries were immediately removed and minced in M2 medium (Sigma; unless otherwise indicated, other chemicals used in this study were also purchased from Sigma) to release oocytes. Oocytes with a clear germinal vesicle (GV) were used for in vitro maturation (IVM) for 17 hours in IVM medium (αMEM medium supplemented with 5% fetal bovine serum and 1 mM L-glutamine) overlaid with mineral oil.
Chromosome spread was carried out according to Hodges and Hunt (Hodges & Hunt, 2002) with minor modifications. In brief, oocytes or 2-cell embryos were collected in M2 medium. The zona pellucida was removed by treatment with 0.5 units/μl pronase at 37° C. for 20 sec. Zona-free oocytes/embryos were rinsed in M2 medium to detach polar bodies. The oocytes/embryos were individually plated onto glass slides (1-10 oocytes/embryos per slide) predipped in the fixative (prepared weekly and stored at 4° C.) containing 1% paraformaldehyde (w/v), 0.15% Triton X-100 (v/v), and 3 mM dithiothreitol, pH 9.2. Slides were kept overnight in moist boxes at room temperature. The slides were then rinsed in 0.5% Kodak Flo (Eastman Kodak Company, Rochester, N.Y.) solution and air-dried. The slides were incubated in 1:200 diluted human anti-centromere serum (Immunovision, Springdale, Ark.) in PBS containing 1% BSA overnight at 4° C., in 1:300 diluted secondary antibody (goat anti-human) conjugated with rhodamine (Jackson ImmunoResearch) in PBS-BSA for 1 h at room temperature, and 0.1% SYTOX green (Invitrogen, Eugene, Oreg.) in PBS for 30 min at room temperature. To avoid bias, the slides were coded by a colleague before being examined by an investigator using epifluorescence microscopy and photographed. Decoding was done after karyotypes were tabulated.

[2] = system: oocytes of very old (16 months) odc-/+ mice
Text: Table 12 Summary of two independent experiments. N: total numbers of oocytes in two experiments; GV: oocytes remained in prophase I; MI, no germinal vesicle and no polar body seen (used for spindle examination); PB1, oocytes with first polar body; Fragmented: abnormal cleavage likely due to parthenogenetic activation. * one MI oocyte was lost during handling.

[3] = system: 9-month-old CF1 mice
Text: Four (4) days later, the female mice are caged individually with fertile males (1:1) overnight. The females were examined in the morning for the presence of a vaginal plug (indicative of mating) and “plugged” females are considered E0 and separated from the males. Mice without a plug were continued mating until a plug was seen, or for up to a total of 4 days (average length of a mouse estrus cycle). Mice were sacrificed on E12 (“unplugged” mice were also sacrificed, taking the next morning following the 4-day-mating as E0) and their uterine horns inspected for normal embryos and dead embryos (resorption).

[4] = system: ovarian polyamines; experiment: Ovarian polyamine quantification by ion chromatography; format: in vivo, mouse; details: older mice, 1% putrescine in drinking water for several days
Description: A Dionex ion chromatography system was used to analyze polyamines during ovulation. This system employs an online conductivity detector coupled with an anion suppressor such that only cations are detected. Ovaries were extracted in 5% trichloric acid (TCA) followed by extraction with diethyl ether. The TCA extracts were diluted in water before being applied to the ion chromatography system.
(§1) Polyamines from ovarian samples were determined by ion chromatography (IC) system (Rey and Pohl, 2003. J. Chromatography A 997:199-206). Ovaries were collected immediately after animal sacrifice and stored at −80° C. until use. The samples were thawed and minced, and then 5% trichloroacetic acid (TCA) was added (20 μl/mg). The samples were ultra-sonicated 30 seconds thrice. After centrifugation, the supernatants were extracted twice with diethyl ether. The mouse blood was collected in a tube containing 1 iu/ml heparin (LEO). After centrifugation, the supernatant (plasma) was collected and 10% TCA was added by 1:1 in volume. These plasma samples were extracted twice with diethyl ether, as noted above. The extracts were diluted 10 times in water for polyamine analysis on Dionex Ion ICS-2100 system (Thermo scientific, Dionex, Sunnyvale, Calif., USA) according to the manufacture instructions, using the support software of PeakNet 6.40 SP5 Build 778.

[5] = in vivo; details: mouse, plasma
Description: as §1

[6] = 1 mM putrescine in drinking water, stated by Penderville H. et al; cited from earlier work
[7] = number of MII eggs, 1% putrescine drinking water one week, IVM with 5 mM putrescine

NCCCCN [Putrescine, putrescine]
% Hyperploidy ([1]; 1% putrescine drinking water one week, IVM with 5 mM putrescine): 0% | % Aneuploidy ([1]; Aneuploid: 2×hyperploid+PSSC, 1% putrescine drinking water one week, IVM with 5 mM putrescine): 5.3% | Euploid 20 [1, 7]: 83 | Hyperploid 21 [1, 7]: 0 | Hyperploid 22 [1, 7]: 0 | Hypoploid 19 [1, 7]: 21 | PSSC [1, 7]: 6 | Hypoploid 18 ([1]; number of MII eggs, 1% putrescine drinking water one week, then 17 h IVM with 5 mM putrescine): 4 | Hyperploid ([1]; number of eggs per experiment date (breakdown of Table 13)): 0 | number of fully grown GV oocytes in the ovaries ([1]; putrescine in drinking water, n=13): 25.3 /mouse | Normal MI spindle ([2]; normal/examined MI oocytes): 19/20* | dead ([2]; number of oocytes): 1 | GV ([2]; number of oocytes remained in prophase I, two experiments): 6 | fragmented ([2]; number of oocytes with abnormal cleavage): 0 | PB1 ([2]; number of oocytes with first polar body): 2 | MI ([2]; number of oocytes, no germinal vesicle and no polar body): 21 | Total implants ([3]; E12): 300 | Total normal fetuses ([3]; E12): 282 | Total resorption sites ([3]; E12): 18 | Total normal fetuses/total animals ([3]; E12, as fraction): 282/29 | Total normal fetuses/total pregnancies ([3]; E12, as fraction): 282/24 | Total resorption sites/total animals ([3]; E12, as fraction): 18/29 | Total resorption sites/total implants ([3]; E12, as fraction): 18/300 | Total resorption sites/total pregnancies ([3]; E12, as fraction): 18/24 | Total normal fetuses/total animals ([3]; E12, quotient): (9.27) | Total normal fetuses/total pregnancies ([3]; E12, quotient): (11.75) | Total resorption sites/total animals ([3]; E12, quotient): (0.62) | Total pregnancy ([3]; number of mice, 1% putrescine in drinking water): 24 | Plug observed ([3]; number of mice, 1% putrescine in drinking water 5-8 days up to plug): 25 | Plug pregnancy ([3]; percent of plugged mice): (92.00%) | Unplug pregnancy ([3]; percent of unplugged mice): (25.00%) | Plug pregnancy ([3]; pregnant/plugged mice): 23/25 | Unplug pregnancy ([3]; pregnant/unplugged mice): 1/4 | levels of ovarian spermidine and spermine [4]: remained unchanged | levels of ovarian putrescine compared to control mice ([4]; before or 5 h after hCG): appreciably higher | concentration at 20 min ([5]; sc): 42 µM | concentration at 40 min ([5]; subcutaneous): 16 µM | concentration at 60 min ([5]; subcutaneous): 8 µM | fetal toxicity [6]: fetal toxicity was found

— patent publication US9248108B2 (Ottawa Hospital Research Institute, priority 2012, dated 2016)
